Counter-ions that a name gives are not always drawn.
biological target: α7 nAChR (Rattus norvegicus, UniProt Q05941); assay: [3H]-MLA competition binding assay in rat brain membranes; details: not given
Text: Materials and Methods for identifying binding constants: […]

Sequence of α7 nAChR (Q05941 23-502): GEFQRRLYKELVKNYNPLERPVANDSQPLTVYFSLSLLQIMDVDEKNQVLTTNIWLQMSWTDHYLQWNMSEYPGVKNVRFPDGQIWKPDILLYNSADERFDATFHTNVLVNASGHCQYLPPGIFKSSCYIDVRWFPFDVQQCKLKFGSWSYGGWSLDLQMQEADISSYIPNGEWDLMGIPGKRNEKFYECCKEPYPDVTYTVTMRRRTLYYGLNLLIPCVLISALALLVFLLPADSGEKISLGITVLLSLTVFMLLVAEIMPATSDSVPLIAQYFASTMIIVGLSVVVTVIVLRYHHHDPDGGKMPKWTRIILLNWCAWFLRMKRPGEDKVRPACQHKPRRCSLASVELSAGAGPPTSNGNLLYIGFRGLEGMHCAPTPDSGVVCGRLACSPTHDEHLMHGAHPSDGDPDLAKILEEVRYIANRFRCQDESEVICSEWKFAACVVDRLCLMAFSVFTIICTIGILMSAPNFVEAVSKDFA

First: O=C(N[C@H]1CN2CCC1CC2)c1ccc(Oc2ccc(O)cc2)cc1 [Example 1, N-[(3R)-1-azabicyclo[2.2.2]oct-3-yl]-4-(4-hydroxyphenoxy)benzamide]
Second: O=C(N[C@H]1CN2CCC1CC2)c1ccc(Oc2ccc(F)cc2)cc1 [Example 8, N-[(3R)-1-azabicyclo[2.2.2]oct-3-yl]-4-(4-fluorophenoxy)benzamide]
The Ki of the first is 3.3-fold lower: 278 nM for the first, 910 nM for the second. The first binds more tightly here.

Going from `CC(=O)Nc1ccc(Oc2ccc(C(=O)N[C@H]3CN4CCC3CC4)cc2)cc1` [Example 2, N-[(3R)-1-azabicyclo[2.2.2]oct-3-yl]-4-(4-acetamidophenoxy)benzamide] to `O=C(N[C@H]1CN2CCC1CC2)c1ccc(Oc2ccc(Cl)cc2)cc1` [Example 13, N-[(3R)-1-azabicyclo[2.2.2]oct-3-yl]-4-(4-chlorophenoxy)-benzamide], the Ki rises from 270 nM to 1240 nM (4.6-fold).

Compared with `O=C(N[C@H]1CN2CCC1CC2)c1ccc(Oc2ccccc2)cc1` [Example 3, N-[(3R)-1-azabicyclo[2.2.2]oct-3-yl]-4-phenoxybenzamide], `O=C(N[C@H]1CN2CCC1CC2)c1ccc(Oc2cccc(Cl)c2)cc1` [Example 12, N-[(3R)-1-azabicyclo[2.2.2]oct-3-yl]-4-(3-chlorophenoxy)-benzamide] is 1.9-fold higher in Ki: 847 nM for the first, 1590 nM for the second. The first binds more tightly here.

Compared with `O=C(N[C@H]1CN2CCC1CC2)c1ccc(C(=O)c2ccccc2)cc1` [Example 7, N-[(3R)-1-azabicyclo[2.2.2]oct-3-yl]-4-benzoylbenzamide], `O=C(N[C@H]1CN2CCC1CC2)c1ccc(Sc2cccc(Cl)c2)cc1` [Example 17, N-[(3R)-1-azabicyclo[2.2.2]oct-3-yl]-4-(3-chlorophenylsulfanyl)benzamide] is 9.3-fold lower in Ki: 1580 nM for the first, 170 nM for the second. The second binds more tightly here.

For `COc1ccc(Oc2ccc(C(=O)N[C@H]3CN4CCC3CC4)cc2)cc1` [Example 16, N-[(3R)-1-azabicyclo[2.2.2]oct-3-yl]-4-(4-methoxyphenoxy)-benzamide], the Ki was 414 nM.

same assay, conditions: read-out: Ki

First: COc1cccc(Oc2ccc(C(=O)N[C@H]3CN4CCC3CC4)cc2)c1 [Example 15, N-[(3R)-1-azabicyclo[2.2.2]oct-3-yl]-4-(3-methoxyphenoxy)-benzamide]
Second: CC1C(NC(=O)c2ccc(Oc3ccccc3)cc2)C2CCN1CC2 (centres unmarked) [Example 23, N-(2-methyl-1-azabicyclo[2.2.2]oct-3-yl)-4-phenoxybenzamide Fumarate]
The Ki of the first is lower: 835 nM for the first, 1660 to 1980 nM for the second.
